Active and inactive are the calls of the source. Bridge positions count the residues as written; N and C are the ends. Peptide text beside a SMILES is read from it.
What was measured:
Erythrocyte = assay: Hemolytic activity in mouse erythrocytes assessed as hemolysis at 100 uM; assay type: toxicity, cell-based
Staphylococcus aureus [1] = assay: Antimicrobial activity against Staphylococcus aureus J685 at 1 nmol relative to control; assay type: functional, organism-based
Streptococcus salivarius = assay: Antimicrobial activity against Streptococcus salivarius ATCC 1.2498 at 1 nmol relative to control; assay type: functional, organism-based
Aspergillus niger = assay: Antifungal activity against Aspergillus niger at 1 nmol relative to control; assay type: functional, organism-based
[2] = system: Stenotrophomonas maltophilia; assay: Antimicrobial activity against Stenotrophomonas maltophilia CGMCC 1.1788 at 1 nmol relative to control; assay type: functional, organism-based
Streptococcus sanguinis [3] = assay: Antimicrobial activity against Streptococcus sanguinis ATCC 1.2497 at 1 nmol relative to control; assay type: functional, organism-based
Aspergillus nidulans = assay: Antifungal activity against Aspergillus nidulans A28 at 1 nmol relative to control; assay type: functional, organism-based
Pseudomonas aeruginosa [4] = assay: Antimicrobial activity against Pseudomonas aeruginosa 374 at 1 nmol relative to control; assay type: functional, organism-based
Staphylococcus aureus [5] = assay: Antimicrobial activity against methicillin-resistant Staphylococcus aureus P1386 at 1 nmol relative to control; assay type: functional, organism-based
Priestia megaterium [6] = assay: Antimicrobial activity against Bacillus megaterium CGMCC 1.0459 at 1 nmol; assay type: functional, organism-based
Geotrichum candidum = assay: Antifungal activity against Geotrichum candidum CCTCC AY 93038 at 1 nmol relative to control; assay type: functional, organism-based
Pseudomonas aeruginosa [7] = assay: Antimicrobial activity against Pseudomonas aeruginosa 11092618 at 1 nmol relative to control; assay type: functional, organism-based
Komagataella pastoris = assay: Antifungal activity against Pichia pastoris X33 at 1 nmol relative to control; assay type: functional, organism-based
Pseudomonas aeruginosa [8] = assay: Antimicrobial activity against Pseudomonas aeruginosa 11082603 at 1 nmol relative to control; assay type: functional, organism-based
Escherichia coli [9] = assay: Antimicrobial activity against Escherichia coli G2b at 1 nmol relative to control; assay type: functional, organism-based
Streptococcus mutans = assay: Antimicrobial activity against Streptococcus mutans ATCC 1.2499 at 1 nmol relative to control; assay type: functional, organism-based
[10] = system: Lysinibacillus fusiformis; assay: Antimicrobial activity against Lysinibacillus fusiformis at 1 nmol relative to control; assay type: functional, organism-based
Metarhizium robertsii = assay: Antifungal activity against Metarhizium robertsii at 1 nmol relative to control; assay type: functional, organism-based
Bacillus subtilis [11] = assay: Antimicrobial activity against Bacillus subtilis CGMCC 1.2428 at 1 nmol relative to control; assay type: functional, organism-based
[12] = system: Staphylococcus epidermidis; assay: Antimicrobial activity against penicillin-resistant Staphylococcus epidermidis P1389 at 1 nmol relative to control; assay type: functional, organism-based
Aspergillus fumigatus = assay: Antifungal activity against Aspergillus fumigatus YJ-407 at 1 nmol relative to control; assay type: functional, organism-based
Pseudomonas aeruginosa [13] = assay: Antimicrobial activity against Pseudomonas aeruginosa 11082616 at 1 nmol relative to control; assay type: functional, organism-based
Aspergillus flavus = assay: Antifungal activity against Aspergillus flavus at 1 nmol relative to control; assay type: functional, organism-based
Pseudomonas aeruginosa [14] = assay: Antimicrobial activity against Pseudomonas aeruginosa QT1 at 1 nmol relative to control; assay type: functional, organism-based
Beauveria bassiana = assay: Antifungal activity against Beauveria bassiana 252 at 1 nmol relative to control; assay type: functional, organism-based
Escherichia coli [15] = assay: Antimicrobial activity against Escherichia coli J23a at 1 nmol relative to control; assay type: functional, organism-based
Micrococcus luteus [16] = assay: Antimicrobial activity against Micrococcus luteus CGMCC 1.0290 at 1 nmol relative to control; assay type: functional, organism-based
Escherichia coli [17] = assay: Antimicrobial activity against Escherichia coli J14b at 1 nmol relative to control; assay type: functional, organism-based
Staphylococcus warneri = assay: Antimicrobial activity against Staphylococcus warneri ATCC 1.2824 at 1 nmol relative to control; assay type: functional, organism-based
Pseudomonas aeruginosa [18] = assay: Antimicrobial activity against Pseudomonas aeruginosa 11092304 at 1 nmol relative to control; assay type: functional, organism-based
Ralstonia solanacearum = assay: Antimicrobial activity against Ralstonia solanacearum at 1 nmol relative to control; assay type: functional, organism-based
Staphylococcus aureus [19] = assay: Antimicrobial activity against methicillin-resistant Staphylococcus aureus P1374 at 1 nmol relative to control; assay type: functional, organism-based
Escherichia coli [20] = assay: Antimicrobial activity against Escherichia coli J45b at 1 nmol relative to control; assay type: functional, organism-based
Curtobacterium luteum [21] = assay: Antimicrobial activity against Curtobacterium luteum at 1 nmol relative to control; assay type: functional, organism-based
Alcaligenes faecalis = assay: Antimicrobial activity against Alcaligenes faecalis CGMCC 1.1837 at 1 nmol relative to control; assay type: functional, organism-based
Pseudomonas aeruginosa [22] = assay: Antimicrobial activity against Pseudomonas aeruginosa FRD1 at 1 nmol relative to control; assay type: functional, organism-based
Pseudomonas aeruginosa [23] = assay: Antimicrobial activity against Pseudomonas aeruginosa O1 at 1 nmol relative to control; assay type: functional, organism-based
Pseudomonas aeruginosa [24] = assay: Antimicrobial activity against Pseudomonas aeruginosa at 1 nmol relative to control; assay type: functional, organism-based
Staphylococcus [25] = assay: Antimicrobial activity against methicillin-resistant coagulase negative Staphylococcus P1369 at 1 nmol relative to control; assay type: functional, organism-based
Staphylococcus aureus [26] = assay: Antimicrobial activity against penicillin-resistant Staphylococcus aureus P1383 at 1 nmol relative to control; assay type: functional, organism-based
Pseudomonas aeruginosa [27] = assay: Antimicrobial activity against Pseudomonas aeruginosa DH at 1 nmol relative to control; assay type: functional, organism-based
Salmonella enterica [28] = assay: Antimicrobial activity against Salmonella enterica ATCC 14028 at 1 nmol relative to control; assay type: functional, organism-based
Escherichia coli [29] = assay: Antimicrobial activity against Escherichia coli J16c at 1 nmol relative to control; assay type: functional, organism-based
Escherichia coli [30] = assay: Antimicrobial activity against Escherichia coli DH5alpha at 1 nmol relative to control; assay type: functional, organism-based
Staphylococcus aureus [31] = assay: Antimicrobial activity against Staphylococcus aureus J685 assessed as lethal concentration; assay type: functional
Staphylococcus aureus [32] = assay: Antimicrobial activity against methicillin-resistant Staphylococcus aureus P1374 assessed as lethal concentration; assay type: functional
Priestia megaterium [33] = assay: Antimicrobial activity against Bacillus megaterium CGMCC 1.0459 assessed as lethal concentration; assay type: functional
Streptococcus sanguinis [34] = assay: Antimicrobial activity against Streptococcus sanguinis ATCC 1.2497 assessed as lethal concentration; assay type: functional
Bacillus subtilis [35] = assay: Antimicrobial activity against Bacillus subtilis CGMCC 1.2428 assessed as lethal concentration; assay type: functional
[36] = system: Staphylococcus epidermidis; assay: Antimicrobial activity against penicillin-resistant Staphylococcus epidermidis P1389 assessed as lethal concentration; assay type: functional
Staphylococcus [37] = assay: Antimicrobial activity against methicillin-resistant coagulase negative Staphylococcus P1369 assessed as lethal concentration; assay type: functional
Curtobacterium luteum [38] = assay: Antimicrobial activity against Curtobacterium luteum assessed as lethal concentration; assay type: functional
[39] = system: Lysinibacillus fusiformis; assay: Antimicrobial activity against Lysinibacillus fusiformis assessed as lethal concentration; assay type: functional
[40] = Retention time of the compound by RP-HPLC analysis; assay type: physicochemical
Micrococcus luteus [41] = assay: Antimicrobial activity against Micrococcus luteus CGMCC 1.0290 assessed as lethal concentration; assay type: functional
Salmonella enterica [42] = assay: Antimicrobial activity against Salmonella enterica ATCC 14028 at 0.25 to 1 nmol; assay type: functional, organism-based; conditions: dose 0.25-1 nmol

H-FFGHLFKLATKIIPSLFQ-OH
Non-Toxic: Activity (Erythrocyte)

H-ATSYSNNKISVSRR-NH2
active: Activity (Priestia megaterium [6])
inactive: Activity (Staphylococcus aureus [1]) | Activity (Streptococcus salivarius) | Activity (Aspergillus niger) | Activity [2] | Activity (Streptococcus sanguinis [3]) | Activity (Aspergillus nidulans) | Activity (Pseudomonas aeruginosa [4]) | Activity (Staphylococcus aureus [5]) | Activity (Geotrichum candidum) | Activity (Pseudomonas aeruginosa [7]) | Activity (Komagataella pastoris) | Activity (Pseudomonas aeruginosa [8]) | Activity (Escherichia coli [9]) | Activity (Streptococcus mutans) | Activity [10] | Activity (Metarhizium robertsii) | Activity (Bacillus subtilis [11]) | Activity [12] | Activity (Aspergillus fumigatus) | Activity (Pseudomonas aeruginosa [13]) | Activity (Aspergillus flavus) | Activity (Pseudomonas aeruginosa [14]) | Activity (Beauveria bassiana) | Activity (Escherichia coli [15]) | Activity (Micrococcus luteus [16]) | Activity (Escherichia coli [17]) | Activity (Staphylococcus warneri) | Activity (Pseudomonas aeruginosa [18]) | Activity (Ralstonia solanacearum) | Activity (Staphylococcus aureus [19]) | Activity (Escherichia coli [20]) | Activity (Curtobacterium luteum [21]) | Activity (Alcaligenes faecalis) | Activity (Pseudomonas aeruginosa [22]) | Activity (Pseudomonas aeruginosa [23]) | Activity (Pseudomonas aeruginosa [24]) | Activity (Staphylococcus [25]) | Activity (Staphylococcus aureus [26]) | Activity (Pseudomonas aeruginosa [27]) | Activity (Salmonella enterica [28]) | Activity (Escherichia coli [29]) | Activity (Escherichia coli [30])

CC[C@H](C)[C@H](NC(=O)[C@H](C)NC(=O)[C@H](CCCCN)NC(=O)[C@H](CC(N)=O)NC(=O)[C@H](CC(N)=O)NC(=O)[C@H](CS)NC(=O)[C@H](Cc1ccc(O)cc1)NC(=O)[C@H](CS)NC(=O)[C@@H](NC(=O)[C@H](C)N)[C@@H](C)O)C(=O)N[C@@H](CS)C(=O)N[C@H](C(=O)N[C@H](CS)C(=O)N[C@H](CCCNC(=N)N)C(=O)N[C@H](CCCNC(=N)N)C(N)=O)C(C)C
inactive: Activity (Staphylococcus aureus [1]) | Activity (Streptococcus salivarius) | Activity (Aspergillus niger) | Activity [2] | Activity (Aspergillus nidulans) | Activity (Pseudomonas aeruginosa [4]) | Activity (Staphylococcus aureus [5]) | Activity (Geotrichum candidum) | Activity (Pseudomonas aeruginosa [7]) | Activity (Komagataella pastoris) | Activity (Pseudomonas aeruginosa [8]) | Activity (Escherichia coli [9]) | Activity (Metarhizium robertsii) | Activity (Aspergillus fumigatus) | Activity (Pseudomonas aeruginosa [13]) | Activity (Aspergillus flavus) | Activity (Pseudomonas aeruginosa [14]) | Activity (Beauveria bassiana) | Activity (Escherichia coli [15]) | Activity (Escherichia coli [17]) | Activity (Staphylococcus warneri) | Activity (Pseudomonas aeruginosa [18]) | Activity (Ralstonia solanacearum) | Activity (Escherichia coli [20]) | Activity (Alcaligenes faecalis) | Activity (Pseudomonas aeruginosa [22]) | Activity (Pseudomonas aeruginosa [23]) | Activity (Pseudomonas aeruginosa [24]) | Activity (Pseudomonas aeruginosa [27]) | Activity (Salmonella enterica [28]) | Activity (Escherichia coli [29]) | Activity (Escherichia coli [30])
15.2 min: Retention_time [40]
14.29 µM: LD (Staphylococcus aureus [32])
10.4 µM: LD (Streptococcus sanguinis [34])
4.1 µM: LD [36]
2.44 µM: LD (Priestia megaterium [33])
8.34 µM: LD (Staphylococcus aureus [31])
4.31 µM: LD (Staphylococcus [37])
1.96 µM: LD (Micrococcus luteus [41])
3.54 µM: LD (Bacillus subtilis [35])
5.35 µM: LD [39]
0.13 µM: LD (Curtobacterium luteum [38])

CC[C@H](C)[C@@H]1NC(=O)[C@H](CCCCN)NC(=O)[C@H](CC(N)=O)NC(=O)[C@H](CC(N)=O)NC(=O)[C@@H]2CSSC[C@H](NC1=O)C(=O)N[C@@H](C(C)C)C(=O)N[C@H](C(=O)N[C@@H](CCCNC(=N)N)C(=O)N[C@@H](CCCNC(=N)N)C(=O)O)CSSC[C@H](NC(=O)[C@@H](NC(=O)[C@H](C)N)[C@@H](C)O)C(=O)N[C@@H](Cc1ccc(O)cc1)C(=O)N2 (H-ATCYCNNKICVCRR-OH; disulfide 3-12, 5-10)
2.58 µM: LD (Priestia megaterium [33])
inactive: Activity (Staphylococcus aureus [1]) | Activity (Streptococcus salivarius) | Activity (Aspergillus niger) | Activity [2] | Activity (Streptococcus sanguinis [3]) | Activity (Aspergillus nidulans) | Activity (Pseudomonas aeruginosa [4]) | Activity (Staphylococcus aureus [5]) | Activity (Geotrichum candidum) | Activity (Pseudomonas aeruginosa [7]) | Activity (Komagataella pastoris) | Activity (Pseudomonas aeruginosa [8]) | Activity (Escherichia coli [9]) | Activity (Streptococcus mutans) | Activity [10] | Activity (Metarhizium robertsii) | Activity (Salmonella enterica [42]) | Activity (Bacillus subtilis [11]) | Activity [12] | Activity (Aspergillus fumigatus) | Activity (Pseudomonas aeruginosa [13]) | Activity (Aspergillus flavus) | Activity (Pseudomonas aeruginosa [14]) | Activity (Beauveria bassiana) | Activity (Escherichia coli [15]) | Activity (Escherichia coli [17]) | Activity (Staphylococcus warneri) | Activity (Pseudomonas aeruginosa [18]) | Activity (Ralstonia solanacearum) | Activity (Staphylococcus aureus [19]) | Activity (Escherichia coli [20]) | Activity (Alcaligenes faecalis) | Activity (Pseudomonas aeruginosa [22]) | Activity (Pseudomonas aeruginosa [23]) | Activity (Pseudomonas aeruginosa [24]) | Activity (Staphylococcus aureus [26]) | Activity (Pseudomonas aeruginosa [27]) | Activity (Salmonella enterica [28]) | Activity (Escherichia coli [29]) | Activity (Escherichia coli [30])
16 min: Retention_time [40]
4.3 µM: LD (Curtobacterium luteum [38])
5.3 µM: LD (Staphylococcus [37])
3.52 µM: LD (Micrococcus luteus [41])
